Experimental data published in PMC11859928, “Design, Synthesis, and Antiproliferative Activity of Novel Indole/1,2,4-Triazole Hybrids as Tubulin Polymerization Inhibitors” (Pharmaceuticals, 2025).
Read-outs that look alike come from different tables or passages of the source.

What was measured:
[1] = biological target: T1, tubulin (Sus scrofa, UniProt P02550+P02554); assay: Tubulin polymerization inhibitory assay; assay type: biochemical
T1 construct: purchased Cytoskeleton Inc., Denver, CO, USA
T1 sequence (P02554 whole entry): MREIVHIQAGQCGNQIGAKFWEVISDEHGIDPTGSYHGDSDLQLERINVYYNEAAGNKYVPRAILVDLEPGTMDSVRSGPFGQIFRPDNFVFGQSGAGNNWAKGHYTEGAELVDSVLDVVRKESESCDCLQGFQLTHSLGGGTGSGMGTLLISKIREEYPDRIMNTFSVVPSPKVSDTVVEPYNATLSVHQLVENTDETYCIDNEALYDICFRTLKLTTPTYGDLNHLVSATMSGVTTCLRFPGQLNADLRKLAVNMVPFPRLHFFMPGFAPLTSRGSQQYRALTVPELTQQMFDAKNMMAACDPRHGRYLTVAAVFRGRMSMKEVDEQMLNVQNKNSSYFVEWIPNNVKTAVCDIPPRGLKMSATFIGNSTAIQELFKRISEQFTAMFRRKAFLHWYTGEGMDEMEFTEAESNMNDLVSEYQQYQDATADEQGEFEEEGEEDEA
T1 sequence (P02550 whole entry): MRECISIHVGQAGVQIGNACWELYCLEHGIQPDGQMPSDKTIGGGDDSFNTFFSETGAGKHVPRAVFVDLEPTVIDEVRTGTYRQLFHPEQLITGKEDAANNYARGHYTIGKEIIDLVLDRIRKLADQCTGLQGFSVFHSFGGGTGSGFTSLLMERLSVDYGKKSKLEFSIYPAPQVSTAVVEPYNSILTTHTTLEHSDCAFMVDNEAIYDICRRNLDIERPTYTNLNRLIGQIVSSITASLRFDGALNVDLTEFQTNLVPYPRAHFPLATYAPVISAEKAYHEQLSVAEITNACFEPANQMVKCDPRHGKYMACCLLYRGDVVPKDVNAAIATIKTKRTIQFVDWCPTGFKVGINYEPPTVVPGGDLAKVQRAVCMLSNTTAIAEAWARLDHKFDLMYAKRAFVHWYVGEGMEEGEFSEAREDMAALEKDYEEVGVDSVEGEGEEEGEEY
Text: The substances’ effects on tubulin polymerization were examined using the Tubulin Polymerization Assay Kit (Cytoskeleton Inc., Denver, CO, USA) according to the supplier’s instructions, with details described in Appendix A..
The activity of compounds on tubulin polymerization was investigated using the Tubulin Polymerization Assay Kit (Cytoskeleton Inc., Denver, CO, USA), which works via fluorescent reporter enhancement. […] Docetaxel and vincristine (Apoteket AB, Stockholm, Sweden) served as positive stabilizing and destabilizing controls. Both were used at a 3 µM concentration in PBS.

[2] = test system: EKVX; assay: NCI five-dose assay; assay type: cell-based, human; conditions: Non-small cell lung cancer
[3] = test system: SK-MEL-5; assay: NCI five-dose assay; assay type: cell-based, human; conditions: SK-MEL-5, Melanoma
[4] = test system: Colon cancer subpanel; assay: NCI five-dose assay, subpanel mean; assay type: cell-based, human
[5] = test system: Prostate cancer subpanel; assay: NCI five-dose assay, subpanel mean; assay type: cell-based, human
[6] = test system: T-47D; assay: NCI five-dose assay; assay type: cell-based, human; conditions: Breast cancer
[7] = test system: SF-295; assay: NCI five-dose assay; assay type: cell-based, human; conditions: SF-295, CNS cancer
[8] = test system: NCI-H226; assay: NCI five-dose assay; assay type: cell-based, human; conditions: NCI-H226, Non-small cell lung cancer
[9] = test system: panel of 60 human tumor cell lines; assay: NCI five-dose assay, full panel; assay type: cell-based
[10] = test system: SK-MEL-28; assay: NCI five-dose assay; assay type: cell-based, human; conditions: SK-MEL-28, Melanoma
[11] = test system: U251; assay: NCI five-dose assay; assay type: cell-based, human; conditions: U251, CNS cancer
[12] = test system: Ovarian cancer subpanel; assay: NCI five-dose assay, subpanel mean; assay type: cell-based, human
[13] = test system: A498; assay: NCI five-dose assay; assay type: cell-based, human; conditions: A498, Renal cancer
[14] = test system: IGROV1; assay: NCI five-dose assay; assay type: cell-based, human; conditions: IGROV1, Ovarian cancer
[15] = test system: HS 578T; assay: NCI five-dose assay; assay type: cell-based, human; conditions: Breast cancer
[16] = test system: NCI-H322M; assay: NCI five-dose assay; assay type: cell-based, human; conditions: Non-small cell lung cancer
[17] = test system: COLO205; assay: NCI five-dose assay; assay type: cell-based, human; conditions: COLO205, Colon cancer
[18] = test system: MCF7; assay: NCI five-dose assay; assay type: cell-based, human; conditions: MCF7, Breast cancer
[19] = test system: KM12; assay: NCI five-dose assay; assay type: cell-based, human; conditions: KM12, Colon cancer
[20] = test system: OVCAR-8; assay: NCI five-dose assay; assay type: cell-based, human; conditions: OVCAR-8, Ovarian cancer
[21] = test system: HT29; assay: NCI five-dose assay; assay type: cell-based, human; conditions: HT29, Colon cancer
[22] = test system: SNB-19; assay: NCI five-dose assay; assay type: cell-based, human; conditions: SNB-19, CNS cancer
[23] = test system: A549/ATCC; assay: NCI five-dose assay; assay type: cell-based, human; conditions: Non-small cell lung cancer
[24] = test system: MDA-MB-435; assay: NCI five-dose assay; assay type: cell-based, human; conditions: MDA-MB-435, Melanoma
[25] = test system: HOP-62; assay: NCI five-dose assay; assay type: cell-based, human; conditions: HOP-62, Non-small cell lung cancer
[26] = Homo sapiens, 48 h, read-out: LC50 (the source's name)
[27] = Homo sapiens, read-out: GI50 Conc. per Cell Lines

For Cc1ccc(/C(CSc2nnc(-c3c[nH]c4ccccc34)n2-c2ccccc2)=N/O)cc1 [Compound 7h, (Z)-2-((5-(1H-Indol-3-yl)-4-phenyl-4H-1,2,4-triazol-3-yl)thio)-1-(p-tolyl)ethanone Oxime], the “%inhibition” value ([1]; conc 0.01 (unit not given; IC50 from this curve in µg/ml)) was 2.01%, the “%inhibition” value ([1]; conc 0.1 (unit not given; IC50 from this curve in µg/ml)) was 8.94% and the “%inhibition” value ([1]; conc 1 (unit not given; IC50 from this curve in µg/ml)) was 26.1%. The “%inhibition” value ([1]; conc 10 (unit not given; IC50 from this curve in µg/ml)) was 49.9%, the “%inhibition” value ([1]; conc 100 (unit not given; IC50 from this curve in µg/ml)) was 76.7% and the IC50 ([1]; read-out: Tub. IC50±SD (converted)) was 18.4 µM. The IC50 ([1]; read-out: Tubulin Inhibitory Effect, IC50) was 18.4 ± 0.7 µM, the CC50 [2, 26] was over 100 µM and the GI50 [2, 27] was 2150 nM. For the same compound, the “TGI Conc. per Cell Lines” value [2] was 5.58 µM, the CC50 [3, 26] was over 100 µM and the GI50 [3, 27] was 4.76 µM. For the same compound, the “TGI Conc. per Cell Lines” value [3] was 48.1 µM, the “GI50 Selectivity Ratio (MID a/MID b)” value ([4]; Colon cancer subpanel) was 0.959 and the GI50 ([4]; Homo sapiens, average sensitivity of all cell lines of the Colon cancer subpanel, read-out: GI50 Subpanel MID b) was 3.13 µM. The GI50 ([5]; Homo sapiens, average sensitivity of all cell lines of the Prostate cancer subpanel, read-out: GI50 Subpanel MID b) was 1860 nM, the “GI50 Selectivity Ratio (MID a/MID b)” value ([5]; Prostate cancer subpanel) was 1.61 and the “TGI Conc. per Cell Lines” value [6] was 4.75 µM. The LC50 (concentration killing 50% of cells) ([6]; Homo sapiens, T47D, 48 h) was over 100 µM, the GI50 ([6]; Homo sapiens, T47D, read-out: GI50 Conc. per Cell Lines) was 2070 nM and the CC50 [7, 26] was 6.15 µM. The GI50 [7, 27] was 1640 nM, the “TGI Conc. per Cell Lines” value [7] was 3.18 µM and the CC50 [8, 26] was 6.91 µM. For the same compound, the GI50 [8, 27] was 1630 nM, the “TGI Conc. per Cell Lines” value [8] was 3.36 µM and the GI50 ([9]; average sensitivity of all cell lines, read-out: GI50 MID a) was 3000 nM. The GI50 ([9]; most of the tested cell lines across nine subpanels, read-out: GI50 values, range across nine subpanels) was 1850 to 5760 nM, the CC50 [10, 26] was over 100 µM and the GI50 [10, 27] was 5.67 µM. For the same compound, the “TGI Conc. per Cell Lines” value [10] was 38.7 µM, the CC50 ([11]; Homo sapiens, U-251, 48 h, read-out: LC50 (the source's name)) was over 100 µM and the GI50 ([11]; Homo sapiens, U-251, read-out: GI50 Conc. per Cell Lines) was 8.22 µM. The “TGI Conc. per Cell Lines” value [11] was over 100 µM, the GI50 ([12]; Homo sapiens, average sensitivity of all cell lines of the Ovarian cancer subpanel, read-out: GI50 Subpanel MID b) was 2240 nM and the “GI50 Selectivity Ratio (MID a/MID b)” value ([12]; Ovarian cancer subpanel) was 1.34. For the same compound, the “TGI Conc. per Cell Lines” value [13] was 89.10 µM, the LC50 ([13]; Homo sapiens, 48 h) was over 100 µM and the GI50 [13, 27] was 24.1 µM. For the same compound, the CC50 ([14]; Homo sapiens, IGROV-1, 48 h, read-out: LC50 (the source's name)) was 9.07 µM, the GI50 ([14]; Homo sapiens, IGROV-1, read-out: GI50 Conc. per Cell Lines) was 2090 nM and the “TGI Conc. per Cell Lines” value [14] was 4.35 µM. The “TGI Conc. per Cell Lines” value [15] was 4.82 µM, the LC50 ([15]; Homo sapiens, 48 h) was over 100 µM and the GI50 [15, 27] was 2070 nM. For the same compound, the CC50 [16, 26] was over 100 µM, the GI50 [16, 27] was 3.54 µM and the “TGI Conc. per Cell Lines” value [16] was 19.80 µM. The “TGI Conc. per Cell Lines” value [17] was 37.40 µM, the CC50 ([17]; Homo sapiens, COLO 205, 48 h, read-out: LC50 (the source's name)) was over 100 µM and the GI50 ([17]; Homo sapiens, COLO 205, read-out: GI50 Conc. per Cell Lines) was 3.77 µM. For the same compound, the LC50 ([18]; Homo sapiens, 48 h) was over 100 µM, the GI50 [18, 27] was 2420 nM and the “TGI Conc. per Cell Lines” value [18] was 7.01 µM. The CC50 [19, 26] was over 100 µM, the GI50 [19, 27] was 8.64 µM and the “TGI Conc. per Cell Lines” value [19] was over 100 µM. The GI50 [20, 27] was 2190 nM, the “TGI Conc. per Cell Lines” value [20] was 4.89 µM and the “TGI Conc. per Cell Lines” value [21] was 4.43 µM. The GI50 ([21]; Homo sapiens, HT-29, read-out: GI50 Conc. per Cell Lines) was 1990 nM, the CC50 [22, 26] was 8.46 µM and the GI50 [22, 27] was 1870 nM. For the same compound, the “TGI Conc. per Cell Lines” value [22] was 3.97 µM, the CC50 [23, 26] was over 100 µM and the GI50 [23, 27] was 3.55 µM. For the same compound, the “TGI Conc. per Cell Lines” value [23] was 69.70 µM, the CC50 [24, 26] was 5.72 µM and the GI50 [24, 27] was 1630 nM. For the same compound, the “TGI Conc. per Cell Lines” value [24] was 3.05 µM, the “TGI Conc. per Cell Lines” value [25] was 3.42 µM and the CC50 [25, 26] was 6.93 µM. For the same compound, the GI50 [25, 27] was 1690 nM.
